Measurements published in BindingDB's records for doi:10.1021/jm900075g (Wyeth Research, 2009).

What follows are compounds tested against RAC-alpha serine/threonine-protein kinase (Homo sapiens, UniProt P31749) (assay: Homogeneous Time-Resolved Fluorescence Resonance Energy Transfer Lance Assay). Conditions: pH 7.4; 22 °C.
Method: AKT1 was assayed using constitutively active Myr-AKT1 in low-binding 96-well plates. The kinase reactions were initiated by the addition of assay mix containing kinase assay buffer, ATP, and a biotinylated substrate peptide. After incubation, Phosphorylated biotin-GSK3alpha was detected by the time-resolved fluorescence resonance energy transfer Lance format with all reagents obtained from Perkin-Elmer. Subsequently, the plates were read in a Victor plate reader (Wallac/Perkin-Elmer).

Chain of RAC-alpha serine/threonine-protein kinase (P31749 whole entry): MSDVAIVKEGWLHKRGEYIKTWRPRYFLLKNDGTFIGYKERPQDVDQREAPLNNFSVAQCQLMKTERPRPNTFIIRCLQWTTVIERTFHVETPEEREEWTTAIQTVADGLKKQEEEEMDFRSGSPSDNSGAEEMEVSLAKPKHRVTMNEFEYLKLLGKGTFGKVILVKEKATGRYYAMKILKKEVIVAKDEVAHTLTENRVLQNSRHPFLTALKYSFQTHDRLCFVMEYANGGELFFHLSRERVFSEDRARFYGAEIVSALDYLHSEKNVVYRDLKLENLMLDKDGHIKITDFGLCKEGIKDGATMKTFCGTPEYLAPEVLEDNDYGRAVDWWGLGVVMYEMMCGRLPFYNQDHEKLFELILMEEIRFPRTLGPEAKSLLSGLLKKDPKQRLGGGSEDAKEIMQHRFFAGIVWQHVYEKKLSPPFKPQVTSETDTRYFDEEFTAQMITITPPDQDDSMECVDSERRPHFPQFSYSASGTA

| IC50 | Structure (SMILES) |
| --- | --- |
| 0.099 µM | O=C1C[C@@H]2O[C@H](c3ccsc3)C3=C(C(=O)c4ccccc4C3=O)[C@@H]2O1 [Pyranonaphthoquinone (PNQ) lactone, 11e] |
| 0.313 µM | C[C@H]1O[C@@H]2CC(=O)O[C@@H]2C2=C1C(=O)c1c(O)cccc1C2=O |
| 0.122 µM | O=C1C[C@H]2O[C@@H](c3ccsc3)C3=C(C(=O)c4ccccc4C3=O)[C@H]2O1 [Pyranonaphthoquinone (PNQ) lactone, 11f] |

| Structure (SMILES) | IC50 |
| --- | --- |
| C[C@H]1O[C@@H]2CC(=O)O[C@@H]2C2=C1C(=O)c1c(ccc(C3C[C@@H](N(C)C)[C@H](O)[C@@H](C)O3)c1O)C2=O (some centres undefined) [Lactoquinomycin A] | 0.149 µM |
